# Like-named read-outs stand apart in the source and are kept apart here.
# What was measured:
# [1] = system: MC38 mouse colon cancer cells; assay: Cytotoxicity (MTT) in combination with DOX; assay type: cell-based; conditions: MC-38, 48 h, sensitizer 5 μg/mL in the combination
# Description: (§1) CT26 cells (MC38 cells, 4T1 cells, B16FIO cells, HePa1-6 cells, H22 cells, LLC cells, MB49 cells, P388 cells, C6 cells, BXPC-3 cells, Hela cells, MDA-MB-231 cells, A2780 cells. PC3 cells. HepG2 cells, and HGC-27 cells) were cultured at 5,000 cells/well in a 96-well plate, 100 μL of a medium was added to each well, and the cells were incubated in a 37° C. constant-temperature incubator with 5% CO2 and 95% humidity for 24 h. 100 μL of different concentrations of drugs (DOX: 0.01 μg/mL to 10 μg/mL; PTX: 0.01 μg/mL to 50 μg/mL; Cela: 0.05 μg/mL to 1 μg/mL; sensitizer: 5 μg/mL) were added to each well, while 100 lit of a medium solution was added to the blank group. After culturing for 48 h, centrifugation was conducted at 1,100 rpm for 6 min, the medium in each well was discarded, 100 μL of an 11,11T working solution was added, and the culturing was continued for 3 h. Centrifugation was conducted at 3,300 rpm. for 5 min, the MITT medium in each well was discarded, 100 pt, of the DMSO was added, and the plate was shaken for 5 min to dissolve all crystals in each well. An absorbance of the sample at 562 nm was detected by a microplate reader. Each set of data was an average of three independent experimental results on the same sample.
# [2] = system: 4T1 mouse breast cancer cells; assay: Cytotoxicity (MTT) in combination with DOX; assay type: cell-based; conditions: 48 h, sensitizer 5 μg/mL in the combination
# Description: as §1
# [3] = system: B16F10 mouse melanoma cells; assay: Cytotoxicity (MTT) in combination with DOX; assay type: cell-based; conditions: B16-F10, 48 h, sensitizer 5 μg/mL in the combination
# Description: as §1
# [4] = system: HePa1-6 mouse hepatoma cells; assay: Cytotoxicity (MTT) in combination with DOX; assay type: cell-based; conditions: 48 h, sensitizer 5 μg/mL in the combination
# Description: as §1
# [5] = system: H22 mouse hepatoma cells; assay: Cytotoxicity (MTT) in combination with DOX; assay type: cell-based; conditions: 48 h, sensitizer 5 μg/mL in the combination
# Description: as §1
# [6] = system: LLC mouse lung cancer cells; assay: Cytotoxicity (MTT) in combination with DOX; assay type: cell-based; conditions: 48 h, sensitizer 5 μg/mL in the combination
# Description: as §1
# [7] = system: MB49 mouse bladder cancer cells; assay: Cytotoxicity (MTT) in combination with DOX; assay type: cell-based; conditions: 48 h, sensitizer 5 μg/mL in the combination
# Description: as §1
# [8] = system: P388 mouse lymphoma cells; assay: Cytotoxicity (MTT) in combination with DOX; assay type: cell-based; conditions: 48 h, sensitizer 5 μg/mL in the combination
# Description: as §1
# [9] = system: C6 rat glioma cells; assay: Cytotoxicity (MTT) in combination with DOX; assay type: cell-based; conditions: Glioma cell, 48 h, sensitizer 5 μg/mL in the combination
# Description: as §1
# [10] = system: BXPC-3 human pancreatic cancer cells; assay: Cytotoxicity (MTT) in combination with DOX; assay type: cell-based; conditions: 48 h, sensitizer 5 μg/mL in the combination
# Description: as §1
# [11] = system: Hela human cervical cancer cells; assay: Cytotoxicity (MTT) in combination with DOX; assay type: cell-based; conditions: 48 h, sensitizer 5 μg/mL in the combination
# Description: as §1
# [12] = system: MDA-MB-231 human breast cancer cells; assay: Cytotoxicity (MTT) in combination with DOX; assay type: cell-based; conditions: 48 h, sensitizer 5 μg/mL in the combination
# Description: as §1
# [13] = system: A2780 Human ovarian cancer cells; assay: Cytotoxicity (MTT) in combination with DOX; assay type: cell-based; conditions: 48 h, sensitizer 5 μg/mL in the combination
# Description: as §1
# [14] = system: PC3 human prostate cancer cells; assay: Cytotoxicity (MTT) in combination with DOX; assay type: cell-based; conditions: 48 h, sensitizer 5 μg/mL in the combination
# Description: as §1
# [15] = system: HepG2 human hepatoma cells; assay: Cytotoxicity (MTT) in combination with DOX; assay type: cell-based; conditions: 48 h, sensitizer 5 μg/mL in the combination
# Description: as §1
# [16] = system: HGC-27 human gastric cancer cells; assay: Cytotoxicity (MTT) in combination with DOX; assay type: cell-based; conditions: 48 h, sensitizer 5 μg/mL in the combination
# Description: as §1
# [17] = system: CT26 mouse colon cancer cells; assay: Cytotoxicity (MTT) in combination with chemotherapeutic drugs;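 also: MTT read-out taken as absorbance at 562 nm after a 3 h dye incubation, medium-only wells as blank, values averaged over three independent experiments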
# Description: as §1
# [18] = system: CT26 mouse colon cancer cells;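 also: MTT read-out taken as absorbance at 562 nm after a 3 h dye incubation, medium-only wells as blank, values averaged over three independent experiments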
# Description: as §1
# [19] = system: PD-L1 expression in CT26 cells; assay: PD-L1 expression in tumor cells by Western blot; assay type: cell-based, mouse; conditions: 5 μM, 48 h
# Description: CT26 cells were inoculated in a 6-well plate at 2×10^4 cells per well and placed in a 37° C. incubator. After the cells adhered, DMSO solutions (5 μM) of compounds 1 to 8 were added separately, and the incubation was continued for 48 h. The medium was discarded, the cells were rinsed three times with pre-cooled PBS, and the washing solution was discarded. 0.2 nrii, of a cell lysis solution containing a protease inhibitor was added to each well and placed on ice to conduct lysis for 30 min.
# After the lysis was completed, a lysate and cell debris were scraped to one side of the Petri dish with a cell scraper, the lysate was transferred to a 1.5 mL Ep tube with a pipette, centrifuged at 4° C. (12,000 rpm/5 min), and a supernatant was collected to determine its protein concentration.
# The protein sample was diluted with a 1UPAlysis buffer to a certain concentration, 5×SDS loading buffer was added in a protein amount of 1 μg/μL, incubated on a metal bath at 95° C. for 5 min, cooled to room temperature, and the sample was loaded to an SDS-PAGE electrophoresis gel (5% for stacking gel and 12% for resolving gel). Under a voltage of 90 V, the protein was run to the bottom of the stacking gel to form a straight line, then the voltage was adjusted to 125 V, and the electrophoresis was stopped after the bromophenol blue appeared. […]
# [20] = system: mRNA expression of PD-L1 in CT26 cells; assay: PD-L1 mRNA expression in tumor cells by qPCR; assay type: cell-based, mouse; conditions: 5 μM, 48 h, GAPDH internal reference
# Description: CT26 cells were inoculated in a 6-well plate at 2×10^5 cells per well and placed in a 37° C. incubator. After the cells adhered, DMSO solutions (5 μM) of the compounds of the present disclosure were added separately, and the incubation was continued for 48 h. Total RNA was lysed and extracted, and reverse transcription and PCR experiments were conducted to detect an RNA level of PD-L1 in CT26 cells, using a GAPDH gene as an internal reference.
# [21] = system: PD-L1 expression in CT26 cells; assay: PD-L1 expression in tumor cells by flow cytometry; assay type: cell-based, mouse; conditions: 24 h, blank group 32.7%
# Description: CT26 cells were inoculated in a 6-well plate at 2×10^4 cells per well. After the cells adhered. […] The medium was discarded, the cells were rinsed three times with PBS, and 0.2 mL of trypsin containing EDTA was added to each well. The digested cells were collected in a flow tube, and a supernatant was removed by centrifugation. The cells were resuspended in a PBS containing 5% goat serum, and an anti-mouse PD-L1 primary antibody (1 μg/1×10^6 cells) was added, and the cells were incubated at 4° C. for 30 min and washed three times with PBS. An equivalent amount of APC-labeled goat anti-rabbit secondary antibody was added and incubation was continued for 30 min; the cells were washed 3 times with PBS and subjected to flow detection on-machine.
# [22] = system: calreticulin in CT26 tumor cells; assay: Drug-induced immunogenic death (calreticulin, confocal); assay type: cell-based, mouse; conditions: doxorubicin-induced CT26 tumor cells, combination with DOX vs DOX alone, 24 h
# Description: CT26 cells were plated in confocal culture dishes, and after overnight cell adherence, different drug treatment groups were added, and the incubation was continued for 24 h. The medium was discarded, the cells were rinsed 3 times with PBS, and fixated with 4% paraformaldehyde for 10 min. The cells were rinsed 3 times with PBS for 3 min each time, a 3% BSA solution was added for blocking for 30 min at 37° C., and the blocking solution was removed with absorbent paper. 200 μuL of a calreticulin antibody (FITC-anti-CRT, 1:200) was added to each well and incubated at room temperature for I h in the dark. The cells were rinsed with PBS 3 times for 3 min each time, then a DAPI staining solution was added to each dish and incubated in the dark for 5 min. After washing three times with PBS, the cells were observed under a laser con focal microscope.
# [23] = system: Raw264.7 M2 tumor-associated macrophages (TAM2s); assay: Polarization of macrophages from M2 to M1 (PCR); assay type: cell-based, mouse; conditions: IL-4-induced TAM2s, 5 μM, 24 h, vs untreated TAM2s
# Description: A mouse macrophage cell line Raw264.7 was inoculated in a 24-well plate. After 12 hours of cell adhesion, the cells were further cultured for one day in a medium containing IL-4 (40 ng/mL) to induce the cells to differentiate into M2 tumor-associated macrophages (TAM2s). DMSO solutions (5 μM) of different groups of the compounds of the present disclosure were added to the TAM2s to treat for 24 h, the cells were collected and lysed, and a total RNA was extracted. The total RNA was subjected to reverse transcription and PCR experiments to detect the RNA levels of an M2 macrophage-specific protein argl and an M1 macrophage-specific protein Nos2 with an hprt gene as an internal reference.
# [24] = system: HIF-1α expression in CT26 cells; assay: HIF-1α expression in tumor cells by flow cytometry; assay type: cell-based, mouse; conditions: 5 μM, 24 h
# Description: CT26 cells were evenly plated in a 6-well plate at 2×10^4 cells per well. After the cells adhered, DMSO solutions (5 μM) of the different compounds of the present disclosure were added separately, and the incubation was continued for 24 h. The medium was discarded, the cells were rinsed three times with PBS, and 0.2 mL of trypsin containing EDTA was added to each well. The digested cells were collected in a flow tube, and a supernatant was removed by centrifugation; the cells were resuspended in a PBS containing 5% goat serum, and an FITC anti-mouse HIF-1α antibody (1 μg/1×10^6 cells) was added, incubated at 4° C. for 30 min, and washed three times with PBS, and subjected to flow detection on-machine.
# [25] = CT26 cell line, chemotherapeutic drug in combination with compound 7 (sensitizer 5 μg/mL), 48 h
structure (smiles),measurement,setting,value
"COc1cccc2c1C(=O)c1c(O)c3c(c(O)c1C2=O)C[C@@](O)(C(=O)CO)C[C@@H]3O[C@H]1C[C@H](N)[C@H](O)[C@H](C)O1 [DOX, doxorubicin]",IC50,[1],0.411 ± 0.017 µg/mL
same,IC50,[2],1.76 ± 0.221 µg/mL
same,IC50,[3],0.214 ± 0.011 µg/mL
same,IC50,[4],1.35 ± 0.331 µg/mL
same,IC50,[5],5.13 ± 0.119 µg/mL
same,IC50,[6],0.088 ± 0.007 µg/mL
same,IC50,[7],0.447 ± 0.022 µg/mL
same,IC50,[8],0.197 ± 0.029 µg/mL
same,IC50,[9],0.119 ± 0.026 µg/mL
same,IC50,[10],14.2 ± 1.68 µg/mL
same,IC50,[11],2.77 ± 0.492 µg/mL
same,IC50,[12],3.57 ± 0.153 µg/mL
same,IC50,[13],10.1 ± 1.24 µg/mL
same,IC50,[14],2.32 ± 0.195 µg/mL
same,IC50,[15],3.45 ± 0.778 µg/mL
same,IC50,[16],1.82 ± 0.227 µg/mL
same,IC50,"[17]; Mus musculus, CT26, 48 h",0.256 ± 0.017 µg/mL
CC(=O)O[C@@]12CO[C@@H]1C[C@H](O)[C@@]1(C)C(=O)[C@H](O)C3=C(C)[C@@H](OC(=O)[C@H](O)[C@@H](NC(=O)OC(C)(C)C)c4ccccc4)C[C@@](O)([C@@H](OC(=O)c4ccccc4)[C@H]21)C3(C)C [Docetaxel],"IC50, Compound 7+",[17]; [25],0.029 ± 0.005 µg/mL
COc1cccc2c1C(=O)c1c(O)c3c(c(O)c1C2=O)C[C@@](O)(C(=O)CO)C[C@@H]3O[C@H]1C[C@H](N)[C@@H](O)[C@H](C)O1 [Epirubicin],IC50,[18],97.4 ± 3.33 µg/mL
same,"IC50, Compound 7+",[17]; [25],17.125 ± 1.338 µg/mL
CCc1c2c(nc3ccc(OC(=O)N4CCC(N5CCCCC5)CC4)cc13)-c1cc3c(c(=O)n1C2)COC(=O)[C@]3(O)CC [Irinotecan],IC50,[18],2.42 ± 0.197 µg/mL
same,"IC50, Compound 7+",[17]; [25],1.415 ± 0.022 µg/mL
CC(C)=CCC[C@]1(C)C=Cc2c(O)c3c(c(CC=C(C)C)c2O1)O[C@]12C(=C[C@@H]4C[C@H]1C(C)(C)O[C@@]2(C/C=C(/C)C(=O)O)C4=O)C3=O [Gambogic acid],IC50,[18],2.18 ± 0.454 µg/mL
same,"IC50, Compound 7+",[17]; [25],0.792 ± 0.181 µg/mL
O=C1[O][Pt]2([NH][C@@H]3CCCC[C@H]3[NH]2)[O]C1=O [Oxaliplatin],"IC50, Compound 7+",[17],0.197 ± 0.022 µg/mL
same,"IC50, Compound 7−",[17],0.650 ± 0.009 µg/mL
"Cc1nc(C(=O)NCC(=O)O)c(O)c2ccc(Oc3ccccc3)cc12 [compound 7, N-(4-Hydroxy-1-methyl-7-phenoxyisoquinoline-3-carbonyl)glycine]",expression of PD-L1 in tumor cells (Western blot),[19],best effect
same,mRNA expression level of PD-L1,[20],best effect
same,PD-L1 expression rate,[21]; 10 μM compound 7 group,18.8%
same,PD-L1 expression rate,[21]; 2.5 compound 7 group,24%
same,PD-L1 expression rate,[21]; 5 1μM compound 7 group,20.8%
same,calreticulin expression (immunogenic death),[22],express more calreticulin
same,RNA level of M1 macrophage-specific protein Nos2,[23],significantly increased
same,RNA level of M2 macrophage-specific protein argl,[23],significantly decreased
same,reduction of HIF-1α,[24],45%
same,expression of HIF-1α in tumor cells,[24]; vs blank control,best effect
same,"cell viability, combination with chemotherapeutic drug DOX vs chemotherapeutic drug alone","[17]; CT26 cells, sensitizer 5 μg/mL, 48 h",best effect
same,"toxicity of doxorubicin (DOX), paclitaxel (PTX), oxaliplatin (OXA) or camptothecin (irinotecan, SN38) on CT26 cells","[17]; combination with compound 7, 48 h",increase the toxicity

# From patent US20230248717A1, “N-(3-HYDROXYPYRIDINE-2-CARBONYL)GLYCINE-BASED ANTITUMOR DRUG SENSITIZER AND APPLICATION THEREOF” (ZHEJIANG UNIVERSITY, priority 2019, published 2023)
